pKi: −log10 of the molar value.
Key:
[1] = target: T1, HCV genotype 1b (BK) NS3 modified enzyme with a R155K mutation (Hepatitis C virus genotype 1b, UniProt P26663, R1181K); test: HCV NS3 protease time-resolved fluorescence (TRF) assay, genotype 1b R155K; type: biochemical; details: Ki 1b R155K
T1 construct: HCV genotype 1b (BK) NS3 modified enzyme
Outline: (§1)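 IC50 values derive from 4-parameter fitting of TRF signal after a 6 h room-temperature cleavage of 25 nM peptide substrate by NS3/NS4A that had been pre-incubated 10 min with compound.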

[2] = target: HCV NS3 protease genotype 3a (3A-1) (Hepatitis C virus genotype 3a, UniProt Q81258); test: HCV NS3 protease time-resolved fluorescence (TRF) assay, genotype 3a; type: biochemical; details: Ki 3a
Outline: as §1

[3] = genotype 1b (BK) NS3 R155K, single value
[4] = first of two values printed in the cell (not explained)
[5] = second of two values printed in the cell (not explained)

| SMILES | pKi [1, 3] | pKi [2] | pKi [1, 4] | pKi [1, 5] |
| --- | --- | --- | --- | --- |
| C=C[C@@H]1C[C@]1(NC(=O)[C@@H]1C[C@@H]2CN1C(=O)[C@H](C1CCCC1)NC(=O)O[C@@H]1CCC[C@H]1CC/C=C/Cc1c(nc3ccccc3c1OCCCN1CCNC1=O)O2)C(=O)NS(=O)(=O)C1(C)CC1 [Example 48, (3aR,7S,10S,12R,21E,24aS)-7-cyclopentyl-N-[(1R,2S)-2-ethenyl-1-{[(1-methyl-cyclopropyl)sulfonyl]carbamoyl}cyclopropyl]-5,8-dioxo-19-[3-(2-oxoimidazolidin-1-yl)propoxy]-1,2,3,3a,5,6,7,8,11,12,20,23,24,24a-tetradecahydro-10H-9,12-methanocyclopenta [18,19][1,10,3,6]dioxadiazacyclononadecino [11,12-b]quinoline-10-carboxamide] | 9.92 | 9.12 | – | – |
| C=C[C@@H]1C[C@]1(NC(=O)[C@@H]1C[C@@H]2CN1C(=O)[C@H](C1CCCCC1)NC(=O)O[C@@H]1C[C@H]1CCCCCc1c(nc3ccccc3c1OC1CC3COCC(C1)N3)O2)C(=O)NS(=O)(=O)C1(C)CC1 (stereo partly drawn) [Example 288, (1aR,5S,8S,10R,22aR)-5-cyclohexyl-N-[(1R,2S)-2-ethenyl-1-{[(1-methylcyclopropyl)sulfonyl]carbamoyl}cyclopropyl]-17-(3-oxa-9-azabicyclo[3.3.1]non-7-yloxy)-3,6-dioxo-1,1a,3,4,5,6,9,10,18,19,20,21,22,22a-tetradecahydro-8H-7,10-methanocyclopropa[18,19][1,10,3,6]dioxadiazacyclononadecino[11,12-b]quinoline-8-carboxamide] | – | 9.65 | 10.74 | 10.30 |
| C=C[C@@H]1C[C@]1(NC(=O)[C@@H]1C[C@@H]2CN1C(=O)[C@H](C(C)(C)C)NC(=O)O[C@@H]1C[C@H]1CCCCCc1c(nc3ccccc3c1OC1CCN(CC(F)(F)F)CC1)O2)C(=O)NS(=O)(=O)C1(C)CC1 [Example 234, (1aR,5S,8S,10R,22aR)-5-tert-butyl-N-[(1R,2S)-2-ethenyl-1-{[(1-methylcyclopropyl)sulfonyl]carbamoyl}cyclopropyl]-3,6-dioxo-17-{[1-(2,2,2-trifluoroethyl)piperidin-4-yl]oxy}-1,1a,3,4,5,6,9,10,18,19,20,21,22,22a-tetradecahydro-8H-7,10-methanocyclopropa[18,19][1,10,3,6]dioxadiazacyclononadecino[11,12-b]quinoline-8-carboxamide] | – | 7.54 | 10.10 | 8.86 |
| C=C[C@@H]1C[C@]1(NC(=O)[C@@H]1C[C@@H]2CN1C(=O)[C@H](C(C)(C)C)NC(=O)O[C@@H]1C[C@H]1CCCCCc1c(nc3ccccc3c1OC1CNC1)O2)C(=O)NS(=O)(=O)C1(C)CC1 [Example 222, (1aR,5S,8S,10R,22aR)-17-(azetidin-3-yloxy)-5-tert-butyl-N-[(1R,2S)-2-ethenyl-1-{[(1-methylcyclopropyl)sulfonyl]carbamoyl}cyclopropyl]-3,6-dioxo-1,1a,3,4,5,6,9,10,18,19,20,21,22,22a-tetradecahydro-8H-7,10-methanocyclopropa[18,19][1,10,3,6]dioxadiazacyclononadecino[11,12-b]quinoline-8-carboxamide] | 10.35 | 9.36 | – | – |
| C=CC1C[C@]1(NC(=O)[C@@H]1C[C@@H]2CN1C(=O)[C@H](C1CCCC1)NC(=O)O[C@@H]1CCC[C@H]1CC/C=C/Cc1c(nc3ccccc3c1OCCCN(C)C)O2)C(=O)NS(=O)(=O)C1CC1 (stereo partly drawn) [Example 77, (3aR,7S,10S,12R,21E,24aS)-7-cyclo pentyl-N-{(1R,2S)-1-[(cyclopropylsulfonyl)carbamoyl]-2-ethenylcyclopropyl}-19-[3-(dimethylamino)propoxy]-5,8-dioxo-1,2,3,3a,5,6,7,8,11,12,20,23,24, 24a-tetradecahydro-10H-9,12-methano cyclopenta[18,19][1,10,3,6] dioxadiazacyclo-nonadecino[11,12-b]quinoline-10-carboxamide] | 10.05 | 9.14 | – | – |
| C=C[C@@H]1C[C@]1(NC(=O)[C@@H]1C[C@@H]2CN1C(=O)[C@H](C(C)(C)C)NC(=O)O[C@@H]1CCC[C@H]1CC/C=C/Cc1c(nc3ccccc3c1OCCCO)O2)C(=O)NS(=O)(=O)C1(C)CC1 [Example 71, (3aR,7S,10S,12R,21E,24aS)-7-tert-butyl-N-[(1R,2S)-2-ethenyl-1-{[(1-methylcyclopropyl)sulfonyl]carbamoyl}cyclopropyl]-19-(3-hydroxypropoxy)-5,8-dioxo-1,2,3,3a,5,6,7,8,11,12,20,23,24,24a-tetradecahydro-10H-9,12-methanocyclopenta[18,19][1,10,3,6]dioxadiazacyclononadecino[11,12-b]quinoline-10-carboxamide] | > 10.80 | 9.38 | – | – |
| C=C[C@@H]1C[C@]1(NC(=O)[C@@H]1C[C@@H]2CN1C(=O)[C@H](C(C)(C)C)NC(=O)O[C@@H]1CCC[C@H]1CCCCCc1c(nc3ccccc3c1OCCN1CCOCC1)O2)C(=O)NS(=O)(=O)N1CCOCC1 [Example 112, (3aR,7S,10S,12R,24aR)-7-tert-butyl-N-{(1R,2S)-2-ethenyl-1-[(morpholin-4-ylsulfonyl)carbamoyl]cylcopropyl}-19-[2-(morpholin-4-yl)ethoxy]-5,8-dioxo-1,2,3,3a,5,6,7,8,11,12,20,21,22,23,24,24a-hexadecahydro-10H-9,12-methanocyclopenta[18,19] [1,10,3,6] dioxadiazacyclononadecino [11,12-b]quinoline-10-carboxamide] | 7.62 | 6.21 | – | – |
| C=C[C@@H]1C[C@]1(NC(=O)[C@@H]1C[C@@H]2CN1C(=O)[C@H](C(C)(C)C)NC(=O)O[C@@H]1C[C@H]1CCCCCc1c(nc3c(F)cccc3c1OCCn1ccnc1)O2)C(=O)NS(=O)(=O)C1(C)CC1 [Example 214, (1aR,5S,8S,10R,22aR)-5-tert-butyl-N-[(1R,2S)-2-ethenyl-1-{[(1-methylcyclopropyl)sulfonyl]carbamoyl}cyclopropyl]-13-fluoro-17-[2-(1H-imidazol-1-yl)ethoxy]-3,6-dioxo-1,1a,3,4,5,6,9,10,18,19,20,21,22,22a-tetradecahydro-8H-7,10-methanocyclopropa[18,19][1,10,3,6] dioxadiazacyclononadecino[11,12-b]quinoline-8-carboxamide] | 10.68 | 8.92 | – | – |
| C=C[C@@H]1C[C@]1(NC(=O)[C@@H]1C[C@@H]2CN1C(=O)[C@H](C(C)(C)C)NC(=O)O[C@@H]1C[C@H]1CCCCCc1c(nc3ccccc3c1OCCCN(CC)CCc1nc3ccccc3[nH]1)O2)C(=O)NS(=O)(=O)C1(C)CC1 [Example 192, (1aR,5S,8S,10R,22aR)-17-(3-{[2-(1H-benzimidazol-2-yl)ethyl](ethyl)amino}propoxy)-5-tert-butyl-N-[(1R,2S)-2-ethenyl-1-{[(1-methylcyclopropyl)sulfonyl]carbamoyl}cyclopropyl]-3,6-dioxo-1,1a,3,4,5,6,9,10,18,19,20,21, 22,22a-tetradecahydro-8H-7,10-methanocyclopropa[18,19][1,10,3,6] dioxadiazacyclononadecino[11,12-b] quinoline-8-carboxamide] | 10.00 | 9.15 | – | – |
| C=C[C@@H]1C[C@]1(NC(=O)[C@@H]1C[C@@H]2CN1C(=O)[C@H](C(C)(C)C)NC(=O)O[C@@H]1CCC[C@H]1CC/C=C/Cc1c(nc3ccccc3c1OC)O2)C(=O)NS(=O)(=O)C1CC1 [Example 6, (3aR,7S,10S,12R,21E,24aS)-7-tert-butyl-N-{(1R,2S)-1-[(cyclopropylsulfonyl)carbamoyl]-2-ethenylcyclopropyl}-19-methoxy-5,8-dioxo-1,2,3,3a,5,6,7,8,11,12,20,23,24,24a-tetradecahydro-10H-9,12-methanocyclopenta[18,19][1,10,3,6] dioxadiazacyclononadecino[11,12-b]quinoline-10-carboxamide] | 10.00 | 8.89 | – | – |
| CC1(S(=O)(=O)NC(=O)[C@@]23C[C@H]2/C=C\CCCCC[C@@H]2NC(=O)O[C@@H]4C[C@H]4CCC/C=C/c4c(nc5ccccc5c4OCCN4CCCCC4)O[C@@H]4C[C@@H](C(=O)N3)N(C4)C2=O)CC1 [Example 296, (1aR,5S,11Z,12aS,13aR,16S,19R,27E,31aR)—N-[(1-methylcyclopropyl)sulfonyl]-3,15,33-trioxo-26-[2-(piperidin-1-yl)ethoxy]-1,1a,3,4,5,6,7,8,9,10,12a,13,15,16,18,19,29,30,31,31a-icosahydro-5,17:16,19-dimethanodicyclopropa[12,13:28,29][1,20,3,14,17]dioxatriazacyclononacosino[21,22-b]quinoline-13a(14H)-carboxamide] | 9.57 | 8.22 | – | – |
| C=C[C@@H]1C[C@]1(NC(=O)[C@@H]1C[C@@H]2CN1C(=O)[C@H](C(C)(C)C)NC(=O)O[C@]1(C)C[C@H]1CCCCCc1c(nc3ccccc3c1OCCN1CCOCC1)O2)C(=O)NS(=O)(=O)C1CC1 [Example 100, (1aR,5S,8S,10R,22aR)-5-tert-butyl-N-{(1R,2S)-1-[(cyclopropylsulfonyl)carbamoyl]-2-ethenylcyclopropyl}-1a-methyl-17-[2-(morpholin-4-yl)ethoxy]-3,6-dioxo-1,1a,3,4,5,6,9, 10,18,19,20,21,22,22a-tetradecahydro-8H-7,10-methanocyclopropa[18,19] [1,10,3,6]dioxadiazacyclonona decino[11,12-b]quinoline-8-carboxamide] | 9.62 | 8.70 | – | – |
| C=C[C@@H]1C[C@]1(NC(=O)[C@@H]1C[C@@H]2CN1C(=O)[C@H](C1CCCC1)NC(=O)O[C@@H]1CCC[C@H]1CCC/C=C/Cc1c(nc3ccccc3c1O)O2)C(=O)NS(=O)(=O)C1CC1 [Example 18] | 9.10 | 7.92 | – | – |

Reference: patent US9328138B2 (priority 2011, dated 2016)
